Measurements as given in article PMC10384782, “New Phenolic Lipids from the Leaves of Clausena harmandiana Inhibit SARS-CoV-2 Entry into Host Cells” (Molecules, 2023).
Entries after “also recorded” stand apart in the source; their conditions may differ.

What was measured:
SARS-CoV-2 [1] = assay: microbe, parasite or virus in culture; assay type: cell-based; conditions: for selectivity index (SI): SARS-CoV-2, Vero-E6 cells; for IC50: Severe acute respiratory syndrome coronavirus 2, Vero C1008, 48 h, read-out: IC50 against SARS-CoV-2
in vitro [2] = conditions: human
in vitro [3] = conditions: African green monkey
HCoV-229E [4] = assay: HCoV-229E-Luc infection inhibition assay (fractions and pure compounds) in Huh7 cells; assay type: cell-based; conditions: for IC50: Human coronavirus 229E, Huh-7, 12 h, read-out: IC50 (concentration inhibited infection by 50%)
HCoV-229E [5] = assay: Time-of-drug addition assay in HCoV-229E-Luc-infected Huh7 cells; assay type: cell-based; conditions: 2 and 3 at 0.2 µM; for inhibition of infection when present during the virus entry step: Q3G 25 µM, co-added with virus for 1 h; for inhibition of infection when added after virus inoculation (replication step): Remdesivir 0.1 µM, luciferase activity
HCoV-229E [6] = assay: microbe, parasite or virus in culture; assay type: cell-based; conditions: Human coronavirus 229E, Huh-7; read-out: inhibition of infection after pre-incubation of virus particles
SARS-CoV-2 [7] = assay type: cell-based

Structure (SMILES)	antiviral activity against SARS-CoV-2 (in words) (SARS-CoV-2 [1]; Vero-E6 cells, non-cytotoxic concentrations)	CC50 (in vitro [2]) [nM]	CC50 (in vitro [3]) [nM]	antiviral activity against HCoV-229E (in words) (HCoV-229E [4]; non-cytotoxic doses (up to 0.25 µM), Huh7 cells)	selectivity index (SI) (SARS-CoV-2 [1])	IC50 (SARS-CoV-2 [1]) [nM]	inhibition of infection when present during the virus entry step (HCoV-229E [5])	inhibition of infection when added after virus inoculation (replication step) (HCoV-229E [5])	inhibition at 0.2 µM (HCoV-229E [6]) [%]	decrease of viral progeny (residual infectivity) (SARS-CoV-2 [7])	SI, selectivity index (CC50/IC50) (HCoV-229E [4])	effect on HCoV-229E-Luc infection at 0.01 µM without pre-incubation (HCoV-229E [4]; Huh7 cells)	IC50 (HCoV-229E [4]) [nM]
CCCC=CCCCCCCCCCCCC(O)Cc1cc(O)ccc1O (stereo not drawn) [Compound 1, (2′. R)-2-[(14′Z)-2′-Hydroxyoctadec-14′-en-1′-yl]benzene-1,4-diol]	no antiviral activity	1300 ± 100	1500 ± 200	no antiviral effect; also recorded: no antiviral activity									
CCCCC=CCCCCCCCCCCCC(O)Cc1cc(O)ccc1O (stereo not drawn) [Compound 2, (2′R)-2-[(14′Z)-2′-hydroxynonadec-14′-en-1′-yl]benzene-1,4-diol]		500 ± 50	500 ± 80		2.5	200	strong inhibition of infection	no inhibition of infection	≤ 60	up to 1 log	5	does not inhibit	100 ± 30
CCCCCCCCCCCCCCCC[C@@H](O)Cc1cc(O)ccc1O [Compound 3, (2′R)-(2-(2-hydroxyoctadecyl)benzene-1,4-diol)]		800 ± 100	900 ± 200		18	50	strong inhibition of infection	no inhibition of infection	≤ 80		16	does not inhibit	50 ± 40
O=c1c(O[C@@H]2O[C@H](CO)[C@@H](O)[C@H](O)[C@H]2O)c(-c2ccc(O)c(O)c2)oc2cc(O)cc(O)c12 [Compound Q3G, Isoquercitrin, reference compound]							strong inhibition of infection						
CCC(CC)COC(=O)[C@H](C)N[P@](=O)(OC[C@H]1O[C@@](C#N)(c2ccc3c(N)ncnn23)[C@H](O)[C@@H]1O)Oc1ccccc1 [Remdesivir, reference compound]								strongly inhibited viral replication					
